Test results: article PMC10010643 (Cancer Chemotherapy and Pharmacology, 2023)
Where “and” joins values, the source holds several entries; their conditions need not be identical. Equal entries are not always repeated. Entries after “also recorded” stand apart in the source; their conditions may differ.

Assay: Safety and tolerability, Part A single ascending-dose phase in healthy participants
Type: in vivo, human
Method: A further two cohorts were recruited. […] Each individual participated in one treatment period only, with the exception of the food-effect cohort (cohort A3) in which there were two treatment periods separated by at least 7 days washout. Participants resided at the Clinical Research Unit (CRU) from 1 day ahead of dosing (day − 1) to day 3 and returned for a follow-up visit 5–7 days after their final dose. For all cohorts, doses were administered in the fasted state in the morning of day 1 of Treatment Period 1. In the food-effect cohort, doses were given 30 min after the start of a high-fat breakfast (973 calories total: approximately 150 protein calories, 250 carbohydrate calories, and 500–600 fat calories) on day 1 of Treatment Period 2. For cohorts A1 to A5 in Treatment Period 1, dosing occurred such that one pair (one active and one placebo) were dosed at least 24 h before the remaining participants. Continuation to dose those who remained was at the investigator’s discretion. Escalating doses were administered following satisfactory sponsor and investigator review of the safety and tolerability data (up to 48 h post-final dose) and PK data (up to 24 h post-final dose) from the lower dose levels.
Safety and tolerability assessments included adverse event (AE) monitoring, physical examinations, laboratory assessments (hematology, clinical chemistry, and urinalysis), vital signs (blood pressure, pulse rate, and body temperature) and ECG.
No formal statistical assessment was performed for the safety analysis.

[1] = single and multiple doses, Parts A and B
[2] = single dose 5 mg (1 × 5 mg), fasted
[3] = single dose 20 mg (4 × 5 mg), fasted
[4] = single dose 50 mg (1 × 50 mg), fasted
[5] = single dose 50 mg (1 × 50 mg), fed
[6] = single dose 50 mg (10 × 5 mg), fasted
[7] = single dose 100 mg (2 × 50 mg), fasted
[8] = single dose 200 mg (4 × 50 mg), fasted
[9] = single dose 400 mg (8 × 50 mg), fasted
[10] = treatment-emergent period, Parts A and B

## OC[C@H]1O[C@H](Sc2cncc(Br)c2)[C@H](O)[C@@H](n2cc(-c3cc(F)c(F)c(F)c3)nn2)[C@H]1O [GB1211]
Part A 100 mg, fasted
  TEAE Pain, participants: 0 n (%)
  TEAE Rash, participants: 0 n (%)
  TEAE Respiratory, thoracic and mediastinal disorders, participants: 0 n (%)
  TEAE Skin and subcutaneous tissue disorders, participants: 0 n (%)
  TEAE Wound, participants: 0 n (%)
Part A 200 mg, fasted
  TEAE Back pain, participants: 0 n (%)
  TEAE Constipation, participants: 0 n (%)
  TEAE Cough, participants: 0 n (%)
  TEAE Decreased appetite, participants: 0 n (%)
  TEAE Diarrhea, participants: 0 n (%)
  TEAE Dry mouth, participants: 0 n (%)
  TEAE Dry skin, participants: 0 n (%)
  TEAE Dyspepsia, participants: 0 n (%)
  TEAE Gastrointestinal disorders, participants: 0 n (%)
  TEAE General disorders and administration site conditions, participants: 0 n (%)
  TEAE Headache, participants: 0 n (%)
  TEAE Infections and infestations, participants: 0 n (%)
  TEAE Injury, poisoning and procedural complications, participants: 0 n (%)
  TEAE Medical device site reaction, participants: 0 n (%)
  TEAE Metabolism and nutrition disorders, participants: 0 n (%)
  TEAE Musculoskeletal and connective tissue disorders, participants: 0 n (%)
  TEAE Nasopharyngitis, participants: 0 n (%)
  TEAE Nervous system disorders, participants: 0 n (%)
  TEAE Pain, participants: 0 n (%)
  TEAE Rash, participants: 0 n (%)
  TEAE Respiratory, thoracic and mediastinal disorders, participants: 0 n (%)
  TEAE Skin and subcutaneous tissue disorders, participants: 0 n (%)
  TEAE Wound, participants: 0 n (%)
Part A 400 mg, fasted
  TEAE Back pain, participants: 0 n (%)
  TEAE Constipation, participants: 0 n (%)
  TEAE Cough, participants: 0 n (%)
  TEAE Decreased appetite, participants: 0 n (%)
  TEAE Diarrhea, participants: 0 n (%)
  TEAE Dry mouth, participants: 0 n (%)
  TEAE Dry skin, participants: 0 n (%)
  TEAE Dyspepsia, participants: 0 n (%)
  TEAE Gastrointestinal disorders, participants: 0 n (%)
  TEAE General disorders and administration site conditions, participants: 0 n (%)
  TEAE Headache, participants: 0 n (%)
  TEAE Infections and infestations, participants: 0 n (%)
  TEAE Injury, poisoning and procedural complications, participants: 0 n (%)
  TEAE Medical device site reaction, participants: 0 n (%)
  TEAE Metabolism and nutrition disorders, participants: 0 n (%)
  TEAE Musculoskeletal and connective tissue disorders, participants: 0 n (%)
  TEAE Nasopharyngitis, participants: 0 n (%)
  TEAE Nervous system disorders, participants: 0 n (%)
  TEAE Pain, participants: 0 n (%)
  TEAE Rash, no. of AEs: 1
  TEAE Rash, participants: 1 (16.7%) n (%)
  TEAE Respiratory, thoracic and mediastinal disorders, participants: 0 n (%)
  TEAE Skin and subcutaneous tissue disorders, no. of AEs: 1
  TEAE Skin and subcutaneous tissue disorders, participants: 1 (16.7%) n (%)
  TEAE Wound, participants: 0 n (%)
Part A, all GB1211 doses
  Number of TEAEs, GB1211 group: 11
  Participants with TEAEs, GB1211 group: 8
[1]
  Safety concerns: No safety concerns were identified
  Tolerability: well tolerated
[2]
  Number of TEAEs: 4
  Participants discontinued due to TEAEs: 0 n (%)
  Participants with SAEs: 0 n (%)
  Participants with TEAEs: 3 (50.0) n (%) and 3 (50.0%) n (%)
  Severity (all TEAEs): Mild: 3 (50.0) n (%)
  Severity (all TEAEs): Moderate: 0 n (%)
  Severity (all TEAEs): Severe: 0 n (%)
  Severity (all TEAEs): Total: 3 (50.0) n (%)
  Severity (possibly related to study treatment): Mild: 1 (16.7) n (%)
  Severity (possibly related to study treatment): Moderate: 0 n (%)
  Severity (possibly related to study treatment): Severe: 0 n (%)
  Severity (possibly related to study treatment): Total: 1 (16.7) n (%)
[3]
  Number of TEAEs: 1
  Participants discontinued due to TEAEs: 0 n (%)
  Participants with SAEs: 0 n (%)
  Participants with TEAEs: 1 (16.7) n (%) and 1 (16.7%) n (%)
  Severity (all TEAEs): Mild: 1 (16.7) n (%)
  Severity (all TEAEs): Moderate: 0 n (%)
  Severity (all TEAEs): Severe: 0 n (%)
  Severity (all TEAEs): Total: 1 (16.7) n (%)
  Severity (possibly related to study treatment): Mild: 0 n (%)
  Severity (possibly related to study treatment): Moderate: 0 n (%)
  Severity (possibly related to study treatment): Severe: 0 n (%)
  Severity (possibly related to study treatment): Total: 0 n (%)
[4]
  Number of TEAEs: 1
  Participants discontinued due to TEAEs: 0 n (%)
  Participants with SAEs: 0 n (%)
  Participants with TEAEs: 1 (16.7) n (%) and 1 (16.7%) n (%)
  Severity (all TEAEs): Mild: 1 (16.7) n (%)
  Severity (all TEAEs): Moderate: 0 n (%)
  Severity (all TEAEs): Severe: 0 n (%)
  Severity (all TEAEs): Total: 1 (16.7) n (%)
  Severity (possibly related to study treatment): Mild: 0 n (%)
  Severity (possibly related to study treatment): Moderate: 0 n (%)
  Severity (possibly related to study treatment): Severe: 0 n (%)
  Severity (possibly related to study treatment): Total: 0 n (%)
[5]
  Number of TEAEs: 1
  Participants discontinued due to TEAEs: 0 n (%)
  Participants with SAEs: 0 n (%)
  Participants with TEAEs: 1 (16.7) n (%) and 1 (16.7%) n (%)
  Severity (all TEAEs): Mild: 0 n (%)
  Severity (all TEAEs): Moderate: 1 n (%) and 1 (16.7) n (%)
  Severity (all TEAEs): Severe: 0 n (%)
  Severity (all TEAEs): Total: 1 (16.7) n (%)
  Severity (possibly related to study treatment): Mild: 0 n (%)
  Severity (possibly related to study treatment): Moderate: 0 n (%)
  Severity (possibly related to study treatment): Severe: 0 n (%)
  Severity (possibly related to study treatment): Total: 0 n (%)
[6]
  Number of TEAEs: 1
  Participants discontinued due to TEAEs: 0 n (%)
  Participants with SAEs: 0 n (%)
  Participants with TEAEs: 1 (16.7) n (%) and 1 (16.7%) n (%)
  Severity (all TEAEs): Mild: 1 (16.7) n (%)
  Severity (all TEAEs): Moderate: 0 n (%)
  Severity (all TEAEs): Severe: 0 n (%)
  Severity (all TEAEs): Total: 1 (16.7) n (%)
  Severity (possibly related to study treatment): Mild: 0 n (%)
  Severity (possibly related to study treatment): Moderate: 0 n (%)
  Severity (possibly related to study treatment): Severe: 0 n (%)
  Severity (possibly related to study treatment): Total: 0 n (%)
[7]
  Number of TEAEs: 2
  Participants discontinued due to TEAEs: 0 n (%)
  Participants with SAEs: 0 n (%)
  Participants with TEAEs: 1 (16.7) n (%) and 1 (16.7%) n (%)
  Severity (all TEAEs): Mild: 1 (16.7) n (%)
  Severity (all TEAEs): Moderate: 0 n (%)
  Severity (all TEAEs): Severe: 0 n (%)
  Severity (all TEAEs): Total: 1 (16.7) n (%)
  Severity (possibly related to study treatment): Mild: 1 (16.7) n (%)
  Severity (possibly related to study treatment): Moderate: 0 n (%)
  Severity (possibly related to study treatment): Severe: 0 n (%)
  Severity (possibly related to study treatment): Total: 1 (16.7) n (%)
[8]
  Number of TEAEs: 0
  Participants discontinued due to TEAEs: 0 n (%)
  Participants with SAEs: 0 n (%)
  Participants with TEAEs: 0 n (%)
  Severity (all TEAEs): Mild: 0 n (%)
  Severity (all TEAEs): Moderate: 0 n (%)
  Severity (all TEAEs): Severe: 0 n (%)
  Severity (all TEAEs): Total: 0 n (%)
  Severity (possibly related to study treatment): Mild: 0 n (%)
  Severity (possibly related to study treatment): Moderate: 0 n (%)
  Severity (possibly related to study treatment): Severe: 0 n (%)
  Severity (possibly related to study treatment): Total: 0 n (%)
[9]
  Number of TEAEs: 1
  Participants discontinued due to TEAEs: 0 n (%)
  Participants with SAEs: 0 n (%)
  Participants with TEAEs: 1 (16.7) n (%) and 1 (16.7%) n (%)
  Severity (all TEAEs): Mild: 1 (16.7) n (%)
  Severity (all TEAEs): Moderate: 0 n (%)
  Severity (all TEAEs): Severe: 0 n (%)
  Severity (all TEAEs): Total: 1 (16.7) n (%)
  Severity (possibly related to study treatment): Mild: 1 (16.7) n (%)
  Severity (possibly related to study treatment): Moderate: 0 n (%)
  Severity (possibly related to study treatment): Severe: 0 n (%)
  Severity (possibly related to study treatment): Total: 1 (16.7) n (%)
Single or multiple GB1211 doses
  Clinical laboratory evaluation, vital signs, ECG or physical examination: no treatment- or dose-related trend; also recorded: no clinically significant finding
[10]
  Serious AEs or severe AEs: no severe TEAEs or serious AEs reported
  Study discontinuations due to AEs: no study discontinuations due to AEs
